Measured values: patent publication US12673054B2, “Substituted nucleoside analogs as PRMT5 inhibitors” (Lupin Limited, priority 2019, dated 2026)
Where two headings read alike, the source gives them in different places.

Assays:
PRMT5:MEP50 = PRMT5:MEP50 (Homo sapiens, UniProt O14744); test: Biochemical assay, HTRF detection, inhibitory effect on PRMT5; details: biotinylated H4R3 substrate, 1 μM SAM; protocol 1 or 2 not given; read-out: IC50 (PRMT5 inhibition), activity range
Procedure: (§1) Inhibitory effect of compounds on PRMT5 was assessed using HTRF detection technology in biochemical assay. Biotinylated H4R3 (residues 1-21) was used as a substrate. Compounds were pre-incubated with 15-25 ng PRMT5:MEP50 per well of a 384-well plate for 30 min at room temperature in the assay buffer containing 20 mM Bicine, pH 7.6, 25 mM NaCl, 2 mM DTT, 0.01% Chicken albumin and 0.01% Tween-20. Reaction was initiated by adding 1 μM of SAM and 50 nM biotinylated H4R3. Total assay volume was 15 μL. Reaction was continued for 120 min at room temperature. Then detection solution containing Streptavidin-Eu cryptate, anti-rabbit IgG-XL-665, Histone H4R3 Dimethyl Symmetric (H4R3me2s) Polyclonal Antibody, all prepared in HTRF detection buffer was added and further incubated for 30 min at room temperature. HTRF signal was recorded in PHERAStar microplate reader. Ratio of signal obtained at 665 nm and 620 nm was used to compute the percent inhibition of compound as follows % Inhibition=100−((Test Ratio−Negative control Ratio)/(Positive control Ratio−Negative control Ratio)*100) where Positive control=PRMT5+SAM+H4R3 Negative control=PRMT5+H4R3
as §1, with “2.5” for “15-25”, “4 h” for “120 min”

MIA PaCa-2 cells = test: Anti-Cancer Assay (MIA PaCa-2); format: cell-based; details: Homo sapiens, 240 h, 10 days, read-out: IC50 (inhibition of cell viability), activity range
Procedure: (§2) Z-138 cells were seeded at a density of 2000-3000 cells per well in culture media (IMDM+10% FBS). PANC-1 (ATCC, CRL-1469™) and MIA PaCa-2 (ATCC, CRL-1420™) cells were seeded at a density of 200-300 cells per well in culture media (DMEM+10% FBS). Cells were seeded in opaque, flat bottomed tissue culture grade 96-well plates and Z-138 cells (suspension) were seeded and treated on the same day with various concentrations of test compounds. PANC-1 and MIA PaCa-2 cells, being adherent, were kept for overnight settlement at standard cell culture conditions (37° C., 5% CO2). On the following day, cells were treated with various concentrations of test compounds. Cells were treated with test compounds for a period of 96 h, 7 days and 10 days, for Z-138 cells, PANC-1 cells and MIA PaCa-2 cells, respectively. Cell viability was assessed using CellTiterGlo™ (Promega, USA) as per manufacturer's instructions. Relative Light Units (RLU) were read in Synergy™ 2 reader (Biotek, USA). The assay measures cellular ATP as an indicator of cell viability. RLU is proportional to the number of viable cells in the respective well.
(§3) % inhibition of cell viability was calculated relative to the vehicle control samples containing media with 0.1% DMSO alone as per the formula below. (Avg. of Untreated Control−Avg. of Test)×100 • Avg. of Untreated control
(§4) The IC50 values of individual compounds were calculated with Non Linear Regression Analysis using Graph Pad Prism (Graph Pad software, Inc, USA).

SDMA = SDMA inhibition assay; format: cell-based; details: Homo sapiens, Z-138 cells, 48 h
Procedure: Z-138 cells (ATCC, CRL-3001™) were seeded at a density of 1 million cells/well in transparent, flat bottomed tissue culture grade 48-well plates. Cells were treated with various concentration of test compounds for a period of 48 h. Cell lysate was prepared using 1×CST Lysis buffer (Cell Signaling Technology, USA) and 500 ng/well/50 μL of lysate in pH 9.6 carbonate buffer was coated on 96-well Maxisorb plate and incubated overnight at 4° C. The plate was washed twice in 1×PBS containing 0.05% Tween 20 and blocked in 1% BSA for 1 h at ambient temperature. Further, the plate was incubated first with primary antibody (anti-SDMA antibody; CST #13222s) at ambient temperature for 2 h and then with HRP-conjugated secondary antibody at ambient temperature for 1 h with 2 intermittent washing steps in between.
For luminescence based detection, HRP substrates (substrate A+ substrate B in a 1:1 proportion) were added followed by luminescence reading after 30 min in Synergy™ 2 reader (Biotek, USA).
For absorbance based detection, TMB substrate was added followed by addition of STOP solution (2N H2SO4) post colour development and absorbance (excitation 450 nm and emission 540 nm) was measured in Synergy™ 2 reader (Biotek, USA).
% inhibition of SDMA was calculated relative to the vehicle control samples containing media with 0.1% DMSO alone as per the formula below. (Avg. of Untreated Control−Avg. of Test)×100 • Avg. of Untreated control
as §4

MIA PaCa-2 xenograft = test: Subchronic MIA PaCa-2 xenograft model, tumor growth inhibition; format: in vivo, Mus musculus; details: 2 mg/kg dose, female athymic nude mice
Procedure: Tumor size was measured with Digimatic Vernier caliper (Mitutoyo, Japan) when the tumors became palpable. Tumor volume (T. V.) is calculated by using the formula: Tumor volume (mm3)=(L×W2)/2
Where, L: Length of tumor, W: Width of tumor in millimeter Percent tumor growth inhibition (% TGI) is calculated using the formula: % TGI=[1−(Tf−Ti)/(Cf−Ci)]×100
Where, Tf and Ti, are the final and initial tumor volumes (test compound), and Cf and Ci are the final and initial mean tumor volumes (vehicle group), respectively.
Tumor fragment xenograft for pancreatic cancer cell line MIA PaCa-2 was established by implantation of tumor fragments 30-45 mm^3 subcutaneously into the right flank of female athymic nude FOXn1/J/Mus musculus mice with an age between 10-11 weeks purchased from the Jackson Laboratory, USA. All animal study proposals were reviewed and approved by the Institutional Animal Ethics Committee (IAEC) prior to initiation of experimentation.

Z-138 cells = test: Anticancer activity assay (cell viability, CellTiterGlo); format: cell-based; details: Homo sapiens, cell line not given, read-out: IC50 (inhibition of cell viability), activity range
Procedure: as §2, §3, §4

[1] = range given with mixed units (pM to nM)
[2] = read-out: IC50 (SDMA inhibition), activity range

PRMT5:MEP50, sequence (O14744 whole entry, the tested form may be a part): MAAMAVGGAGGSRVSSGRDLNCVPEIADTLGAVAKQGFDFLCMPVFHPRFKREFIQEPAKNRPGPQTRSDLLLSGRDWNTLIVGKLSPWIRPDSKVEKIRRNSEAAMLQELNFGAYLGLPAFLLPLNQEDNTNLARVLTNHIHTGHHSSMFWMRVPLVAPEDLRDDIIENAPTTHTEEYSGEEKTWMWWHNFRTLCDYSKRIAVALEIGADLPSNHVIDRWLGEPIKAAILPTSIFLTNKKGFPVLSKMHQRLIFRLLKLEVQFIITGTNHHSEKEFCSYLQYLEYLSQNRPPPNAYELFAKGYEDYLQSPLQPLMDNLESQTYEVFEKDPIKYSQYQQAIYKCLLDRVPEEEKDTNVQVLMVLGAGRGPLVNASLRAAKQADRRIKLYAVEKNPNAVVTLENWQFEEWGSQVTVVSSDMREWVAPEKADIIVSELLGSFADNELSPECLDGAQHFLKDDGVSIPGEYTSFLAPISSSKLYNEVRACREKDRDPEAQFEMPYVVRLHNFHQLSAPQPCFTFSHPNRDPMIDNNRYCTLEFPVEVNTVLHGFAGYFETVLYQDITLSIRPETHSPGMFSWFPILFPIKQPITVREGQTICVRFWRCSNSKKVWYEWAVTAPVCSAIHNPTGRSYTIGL
PRMT5:MEP50, sequence (Q9BQA1 whole entry partner, the tested form may be a part): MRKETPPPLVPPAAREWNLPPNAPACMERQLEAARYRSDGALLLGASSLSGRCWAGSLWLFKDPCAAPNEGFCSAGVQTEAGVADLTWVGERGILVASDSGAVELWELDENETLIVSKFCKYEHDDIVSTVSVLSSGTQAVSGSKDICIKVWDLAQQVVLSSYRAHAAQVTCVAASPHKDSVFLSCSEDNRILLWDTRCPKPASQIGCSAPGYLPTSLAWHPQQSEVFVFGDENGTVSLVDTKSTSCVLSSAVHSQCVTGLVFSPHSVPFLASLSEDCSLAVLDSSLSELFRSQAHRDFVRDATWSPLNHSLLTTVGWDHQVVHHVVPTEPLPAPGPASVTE

Compound	IC50 (PRMT5:MEP50) [nM]	IC50 (MIA PaCa-2 cells) [pM]	IC50 (SDMA; [1]) [pM]	IC50 (Z-138 cells) [nM]	IC50 (SDMA; [2]) [pM]	IC50 (MIA PaCa-2 cells; [1]) [pM]	% of tumor growth inhibition (MIA PaCa-2 xenograft) [%]
Cc1nc(N)nc2c1ccn2[C@@H]1C=C(CCc2cc(C(F)F)c(F)c3c2CNCC3)[C@@H](O)[C@H]1O [Example 8, (1S,2R,5R)-5-(2-Amino-4-methyl-7H-pyrrolo[2,3-d]pyrimidin-7-yl)-3-(2-(6-(difluoromethyl)-5-fluoro-1,2,3,4-tetrahydroisoquinolin-8-yl)ethyl)cyclopent-3-ene-1,2-diol]	0.4 to 0.75			> 1	1100 to 50000		
Cc1nc(N)c2ccn([C@@H]3C=C(COc4cc(C(F)F)cc5c4CNCC5)[C@@H](O)[C@H]3O)c2n1 [Example 5, (1S,2R,5R)-5-(4-Amino-2-methyl-7H-pyrrolo[2,3-d]pyrimidin-7-yl)-3-(((6-(difluoromethyl)-1,2,3,4-tetrahydroisoquinolin-8-yl)oxy)methyl)cyclopent-3-ene-1,2-diol]	> 0.75			> 1			
Cc1nc(N)c2ccn([C@@H]3C=C(CCc4cc(C(F)F)cc5c4CNCC5)[C@@H](O)[C@H]3O)c2n1 [Example 6, (1S,2R,5R)-5-(4-Amino-2-methyl-7H-pyrrolo[2,3-d]pyrimidin-7-yl)-3-(2-(6-(difluoromethyl)-1,2,3,4-tetrahydroisoquinolin-8-yl)ethyl)cyclopent-3-ene-1,2-diol]	> 0.75			> 1			

Second part, led by results:

IC50 (PRMT5:MEP50) [nM]	IC50 (MIA PaCa-2 cells) [pM]	IC50 (SDMA; [1]) [pM]	IC50 (Z-138 cells) [nM]	IC50 (SDMA; [2]) [pM]	IC50 (MIA PaCa-2 cells; [1]) [pM]	Compound	% of tumor growth inhibition (MIA PaCa-2 xenograft) [%]
0.4 to 0.75	1 to 400	100 to 1000				Cc1nc(N)nc2c1ccn2[C@@H]1C=C(CCc2cc(F)c3cc(Cl)c(N)nc3c2)[C@@H](O)[C@H]1O [Example 1, (1S,2R,5R)-3-(2-(2-Amino-3-chloro-5-fluoroquinolin-7-yl)ethyl)-5-(2-amino-4-methyl-7H-pyrrolo[2,3-d]pyrimidin-7-yl)cyclopent-3-ene-1,2-diol]	57
0.4 to 0.75	1 to 400	100 to 1000				Cc1nc(N)c2ccn([C@@H]3C=C(CCc4cc(F)c5cc(Cl)c(N)nc5c4)[C@@H](O)[C@H]3O)c2n1 [Example 7, (1S,2R,5R)-5-(4-Amino-2-methyl-7H-pyrrolo[2,3-d]pyrimidin-7-yl)-3-(2-(2-amino-3-chloro-5-fluoroquinolin-7-yl)ethyl)cyclopent-3-ene-1,2-diol]	
0.4 to 0.75				1100 to 50000	401 to 30000	Cc1nc(N)nc2c1ccn2[C@@H]1C=C(COc2cc(F)c3cc(Cl)c(N)nc3c2)[C@@H](O)[C@H]1O [Example 2, (1S,2R,5R)-3-(((2-Amino-3-chloro-5-fluoroquinolin-7-yl)oxy)methyl)-5-(2-amino-4-methyl-7H-pyrrolo[2,3-d]pyrimidin-7-yl)cyclopent-3-ene-1,2-diol]	
0.4 to 0.75		100 to 1000			401 to 30000	Cc1nc(N)nc2c1cnn2[C@@H]1C=C(CCc2cc(F)c3cc(Cl)c(N)nc3c2)[C@@H](O)[C@H]1O [Example 4, (1S,2R,5R)-3-(2-(2-Amino-3-chloro-5-fluoroquinolin-7-yl)ethyl)-5-(6-amino-4-methyl-1H-pyrazolo[3,4-d]pyrimidin-1-yl)cyclopent-3-ene-1,2-diol]	
0.4 to 0.75				1100 to 50000	401 to 30000	Cc1nc(N)c2ccn([C@@H]3C=C(COc4cc(F)c5cc(Cl)c(N)nc5c4)[C@@H](O)[C@H]3O)c2n1 [Example 3, (1S,2R,5R)-5-(4-Amino-2-methyl-7H-pyrrolo[2,3-d]pyrimidin-7-yl)-3-(((2-amino-3-chloro-5-fluoroquinolin-7-yl)oxy)methyl)cyclopent-3-ene-1,2-diol]	
